Usually IC50 stands for the concentration that inhibits the measured activity by half.

Common to all, as to assay type: cell-based
The subject of one experiment is A431 (EGFR-WT). As to the kind of experiment: Cell proliferation study (CellTiter-Glo, 72 hrs), A431. The settings on record: Homo sapiens, A-431, A431 cells, CTG, * = average of multiple measurements. A digest of the protocol:
(§1)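 Cells were seeded overnight, then exposed for 72 hrs at 37 °C, 5% CO2 to 9 concentrations in 3.16-fold steps, 0.1% DMSO final, triplicate wells. Viability was read by CellTiter-Glo luminescence, with a T0 plate read at dosing. IC50 came from nonlinear sigmoidal dose-response fits.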

Experiment [1] addresses Ba/F3 EGFR-D770-N771ins_SVD (Homo sapiens, UniProt P00533, DUP768-770, cells depend on it). As to the kind of experiment: Cell proliferation study (CellTiter-Glo, 72 hrs), Ba/F3 EGFR-D770-N771ins_SVD. The settings on record: CTG, * = average of multiple measurements, read-out: Ba/F3 EGFR-D770-N771ins_SVD IC50. A digest of the protocol: as §1
(In general: In ATP-based viability assays light output follows the ATP content of the culture.)

Experiment [2] addresses Ba/F3 EGFR-V769_D770insASV (Homo sapiens, UniProt P00533, DUP767-769, cells depend on it). As to the kind of experiment: Cell proliferation study (CellTiter-Glo, 72 hrs), Ba/F3 EGFR-V769_D770insASV. As to conditions: CTG, * = average of multiple measurements, read-out: Ba/F3 EGFR-V769_D770insASV IC50. A digest of the protocol:
as §1

Ba/F3 EGFR-V769_D770insASV, sequence (P00533 with tags, fused parts or gaps DUP767-769): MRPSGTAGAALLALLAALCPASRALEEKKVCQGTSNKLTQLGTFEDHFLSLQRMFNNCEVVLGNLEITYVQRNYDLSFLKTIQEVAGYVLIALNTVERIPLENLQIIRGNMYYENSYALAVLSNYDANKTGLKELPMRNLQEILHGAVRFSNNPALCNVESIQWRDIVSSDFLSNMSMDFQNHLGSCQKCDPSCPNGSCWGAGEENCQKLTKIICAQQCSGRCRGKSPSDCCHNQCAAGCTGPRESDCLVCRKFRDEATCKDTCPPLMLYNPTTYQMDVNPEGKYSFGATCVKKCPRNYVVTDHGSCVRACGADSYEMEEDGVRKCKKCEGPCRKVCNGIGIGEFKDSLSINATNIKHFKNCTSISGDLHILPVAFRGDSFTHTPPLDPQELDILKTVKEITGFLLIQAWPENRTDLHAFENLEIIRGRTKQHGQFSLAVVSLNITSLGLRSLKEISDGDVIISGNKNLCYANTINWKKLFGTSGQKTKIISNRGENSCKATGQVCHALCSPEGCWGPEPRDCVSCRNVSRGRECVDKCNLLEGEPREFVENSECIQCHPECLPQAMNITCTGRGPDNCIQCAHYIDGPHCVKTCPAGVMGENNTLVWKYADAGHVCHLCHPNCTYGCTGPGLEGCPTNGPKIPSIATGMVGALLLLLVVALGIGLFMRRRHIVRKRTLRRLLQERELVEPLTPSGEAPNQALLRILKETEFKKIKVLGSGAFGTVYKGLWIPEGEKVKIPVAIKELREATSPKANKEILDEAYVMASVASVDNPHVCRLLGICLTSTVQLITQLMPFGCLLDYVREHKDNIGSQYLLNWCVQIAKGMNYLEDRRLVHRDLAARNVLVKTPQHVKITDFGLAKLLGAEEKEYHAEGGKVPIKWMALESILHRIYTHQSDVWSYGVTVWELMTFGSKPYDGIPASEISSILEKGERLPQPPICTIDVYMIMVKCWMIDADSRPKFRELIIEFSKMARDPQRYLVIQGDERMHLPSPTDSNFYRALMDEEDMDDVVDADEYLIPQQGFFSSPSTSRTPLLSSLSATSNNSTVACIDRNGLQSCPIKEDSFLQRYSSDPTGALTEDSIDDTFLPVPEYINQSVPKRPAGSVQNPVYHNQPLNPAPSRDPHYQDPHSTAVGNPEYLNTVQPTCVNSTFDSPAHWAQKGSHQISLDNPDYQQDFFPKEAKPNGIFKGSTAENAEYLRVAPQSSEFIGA
Ba/F3 EGFR-D770-N771ins_SVD, sequence (P00533 with tags, fused parts or gaps DUP768-770): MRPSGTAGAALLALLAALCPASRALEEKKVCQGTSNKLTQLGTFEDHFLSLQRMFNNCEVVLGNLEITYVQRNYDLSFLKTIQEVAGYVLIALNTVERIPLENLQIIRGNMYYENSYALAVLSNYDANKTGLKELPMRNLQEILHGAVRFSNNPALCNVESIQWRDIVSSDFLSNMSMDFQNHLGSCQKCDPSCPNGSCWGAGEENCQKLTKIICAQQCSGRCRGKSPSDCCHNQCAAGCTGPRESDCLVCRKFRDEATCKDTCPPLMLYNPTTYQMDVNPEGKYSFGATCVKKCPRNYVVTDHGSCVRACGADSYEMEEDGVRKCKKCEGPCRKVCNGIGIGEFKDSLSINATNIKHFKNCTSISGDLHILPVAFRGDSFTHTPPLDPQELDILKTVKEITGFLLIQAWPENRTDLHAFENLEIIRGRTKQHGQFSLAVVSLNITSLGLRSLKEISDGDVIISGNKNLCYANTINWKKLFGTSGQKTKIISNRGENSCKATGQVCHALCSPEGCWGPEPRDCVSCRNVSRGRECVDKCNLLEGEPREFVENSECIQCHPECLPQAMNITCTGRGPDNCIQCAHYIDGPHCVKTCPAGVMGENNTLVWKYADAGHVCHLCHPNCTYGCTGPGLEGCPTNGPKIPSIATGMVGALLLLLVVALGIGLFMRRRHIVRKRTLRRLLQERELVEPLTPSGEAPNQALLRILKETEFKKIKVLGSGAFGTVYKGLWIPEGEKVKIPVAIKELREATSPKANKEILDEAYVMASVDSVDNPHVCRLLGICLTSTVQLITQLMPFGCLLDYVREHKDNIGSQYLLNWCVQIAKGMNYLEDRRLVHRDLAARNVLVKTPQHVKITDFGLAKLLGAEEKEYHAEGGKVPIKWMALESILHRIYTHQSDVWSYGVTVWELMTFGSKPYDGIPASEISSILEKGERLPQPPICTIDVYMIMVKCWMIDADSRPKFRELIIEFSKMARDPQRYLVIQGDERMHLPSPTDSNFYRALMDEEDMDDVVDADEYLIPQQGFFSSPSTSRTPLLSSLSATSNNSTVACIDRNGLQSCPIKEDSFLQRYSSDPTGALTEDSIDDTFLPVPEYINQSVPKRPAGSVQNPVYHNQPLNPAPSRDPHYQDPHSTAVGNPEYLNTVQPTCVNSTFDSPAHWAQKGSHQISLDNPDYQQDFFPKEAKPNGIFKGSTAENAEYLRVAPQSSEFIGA

`C=CC(=O)Nc1cc(Nc2ncc(C(=O)OC(C)C)c(N3CC(C)(C)c4nc(C#CC)ccc43)n2)c(OC)cc1N(C)CCN(CC)CC` [Example 89, isopropyl 2-((5-acrylamido-4-((2-(diethyl-amino)ethyl)(methyl)amino)-2-methoxyphenyl)amino)-4-(3,3-dimethyl-5-(prop-1-yn-1-yl)-2,3-dihydro-1H-pyrrolo[3,2-b]pyridin-1-yl)pyrimidine-5-carboxylate] returned a concentration for half-maximal inhibition (IC50) in the experiment with A431 (EGFR-WT) of 178 nM. For the same molecule, the GI50 in experiment [1] was 13.1 nM; in experiment [2], 242 nM.
In the same order, the values of `C=CC(=O)Nc1cc(Nc2ncc(C(=O)OC(C)C)c(N3CC4(CCC4)c4ncccc43)n2)c(OC(F)F)cc1N(C)CCN(C)C` [Example 6, isopropyl 2-((5-acrylamido-2-(difluoromethoxy)-4-((2-(dimethylamino)ethyl)(methyl)ami-no)phenyl)amino)-4-(spiro(cyclo-butane-1,3′-pyrrolo[3,2-b]pyridin)-1′(2′H)-yl)pyrimidine-5-carboxylate] are 627 nM, 12.4 nM and 35.1 nM.
The matching figures for `C=CC(=O)Nc1cc(Nc2ncc(C(=O)OC(C)C)c(N3CC(C)(C)c4nc(C)ccc43)n2)c(OC)cc1N1C[C@@H](F)C[C@@H]1CN(C)C` [Example 63, isopropyl 2-((5-acrylamido-4-((2R,4S)-2-((dimethylamino)methyl)-4-fluoro-pyrrolidin-1-yl)-2-methoxy-phenyl)amino)-4-(3,3,5-trimethyl-2,3-dihydro-1H-pyrrolo[3,2-b]pyridin-1-yl)pyrimidine-5-carboxylate]: 110 nM, 10.7 nM and 18.3 nM.
On to `C=CC(=O)Nc1cc(Nc2ncc(C(=O)OC(C)C)c(N3CC4(CCC4)c4ncccc43)n2)c(OC)cc1N(C)CCN(C)C` [Example 7, isopropyl 2-((5-acrylamido-4-((2-(dimethylami-no)ethyl)(methyl)amino)-2-methoxy-phenyl)amino)-4-(spiro(cyclobutane-1,3′-pyrrolo[3,2-b]pyridin)-1′(2′H)-yl)pyrimidine-5-carboxylate], for which the IC50 in the experiment on A431 (EGFR-WT) was determined as 735 nM. Also, the GI50 is 18.8 nM in experiment [1] and 29.9 nM in experiment [2].
In the same order, the values of `C=CC(=O)Nc1cc(Nc2ncc(C(=O)OC(C)C)c(N3CC(C)(C)c4nc(C)ccc43)n2)c(O)cc1N(C)CCN(C)C` [Example 54, isopropyl 2-((5-acrylamido-4-((2-(dimethylami-no)ethyl)(methyl)amino)-2-hydroxy-phenyl)amino)-4-(3,3,5-trimethyl-2,3-dihydro-1H-pyrrolo[3,2-b]pyridin-1-yl)pyrimidine-5-carboxylate] are 1140 nM, 77 nM and 81.9 nM.
In the same order, the values of `C=CC(=O)Nc1cc(Nc2ncc(C(=O)OC(C)C)c(N3CC(C)(C)c4nc(C#CC)ccc43)n2)c(OC)cc1N1CC[C@@H](N(C)C)C1` [Example 74, isopropyl (R)-2-((5-acrylamido-4-(3-(dimethyl-amino)pyrrolidin-1-yl)-2-methoxy-phenyl)amino)-4-(3,3-dimethyl-5-(prop-1-yn-1-yl)-2,3-dihydro-1H-pyrrolo[3,2-b]pyridin-1-yl)pyrimidine-5-carboxylate] are 99.3 nM, 15.5 nM and 43.6 nM.
`[2H]C1([2H])N(c2nc(Nc3cc(NC(=O)C=C)c(N4CCC[C@@H]4CN(C)C)cc3OC)ncc2C(=O)OC(C)C)c2ccc(C)nc2C1(C)C` [Example 48, isopropyl (R)-2-((5-acrylamido-4-(2-((dimethyl-amino)methyl)pyrrolidin-1-yl)-2-meth-oxyphenyl)amino)-4-(3,3,5-trimethyl-2,3-dihydro-1H-pyrrolo[3,2-b]pyridin-1-yl-2,2-d2)pyrimidine-5-carboxylate]: the midpoint of inhibition with A431 (EGFR-WT), the IC50, lay at 4.4 nM. Besides, the figures for the GI50 in experiment [1] and in experiment [2] were 11.1 nM and 37 nM, respectively.
The matching figures for `[2H]C1([2H])N(c2nc(Nc3cc(NC(=O)C=C)c(N4CC(N(C)C)C4)cc3OC)ncc2C(=O)OC(C)C)c2ccc(C)nc2C1(C)C` [Example 50, isopropyl 2-((5-acrylamido-4-(3-(dimethylami-no)azetidin-1-yl)-2-methoxy-phenyl)amino)-4-(3,3,5-trimethyl-2,3-dihydro-1H-pyrrolo[3,2-b]pyridin-1-yl-2,2-d2)pyrimidine-5-carboxylate]: 813 nM, 36.7 nM and 27.9 nM.
The matching figures for `C=CC(=O)Nc1cc(Nc2ncc(C(=O)OC(C)C)c(N3CC(C)(C)c4nc(C)ccc43)n2)c(OC)cc1N1CCC[C@H](N(C)C)C1` [Example 60, isopropyl (S)-2-((5-acrylamido-4-(3-(dimethyl-amino)piperidin-1-yl)-2-methoxy-phenyl)amino)-4-(3,3,5-trimethyl-2,3-dihydro-1H-pyrrolo[3,2-b]pyridin-1-yl)pyrimidine-5-carboxylate]: 761 nM, 31.9 nM and 37.9 nM.
As for `C=CC(=O)Nc1cc(Nc2ncc(C(=O)OC(C)C)c(N3CC(C)(C)c4ncccc43)n2)c(OC(F)F)cc1N(C)CCN(C)C` [Example 3, isopropyl 2-((5-acrylamido-2-(difluoromethoxy)-4-((2-(dimethylamino)ethyl)(methyl)ami-no)phenyl)amino)-4-(3,3-dimethyl-2,3-dibydro-1H-pyrrolo[3,2-b]pyridin-1-yl)pyrimidine-5-carboxylate], the IC50 in the experiment with A431 (EGFR-WT) is 371 nM. The GI50 in experiment [1] worked out at 23.2 nM; in experiment [2], 33.1 nM.
In the same order, the values of `C=CC(=O)Nc1cc(Nc2ncc(C(=O)OC(C)C)c(N3CC(C)(C)c4nc(C)ccc43)n2)c(OC)cc1N1C[C@H]2CN(C)C[C@H]2C1` [Example 58, isopropyl 2-((5-acrylamido-2-methoxy-4-((3aR,6aS)-5-methylhexahydro-pyrrolo[3,4-c]pyrrol-2(1H)-yl)phenyl)amino)-4-(3,3,5-trimethyl-2,3-dihydro-1H-pyrrolo[3,2-b]pyridin-1-yl)pyrimidine-5-carboxylate] are 1280 nM, 28.7 nM and 38.1 nM.
In the same order, the values of `[2H]C([2H])([2H])N(CCN(C([2H])([2H])[2H])C([2H])([2H])[2H])c1cc(OC)c(Nc2ncc(C(=O)OC(C)C)c(N3c4ccc(C)nc4C(C)(C)C3([2H])[2H])n2)cc1NC(=O)C=C` [Example 78, isopropyl 2-((5-acrylamido-4-((2-(bis(methyl-d3)amino)ethyl)(methyl-d3)amino)-2-methoxyphenyl)amino)-4-(3,3,5-tri-methyl-2,3-dihydro-1H-pyrrolo[3,2-b]pyridin-1-yl-2,2-d2)pyrimidine-5-carboxylate] are 72 nM, 12.3 nM and 36.4 nM.
In the same order, the values of `C=CC(=O)Nc1cc(Nc2ncc(C(=O)OC(C)C)c(N3CC(C)(C)c4nc(C)ccc43)n2)c(OC)nc1N1C[C@@H](F)C[C@@H]1CN(C)C` [Example 59, isopropyl 2-((5-acrylamido-6-((2R,4S)-2-((dimethylamino)methyl)-4-fluoro-pyrrolidin-1-yl)-2-methoxypyridin-3-yl)amino)-4-(3,3,5-trimethyl-2,3-dihydro-1H-pyrrolo[3,2-b]pyridin-1-yl)pyrimidine-5-carboxylate] are 150 nM, 18.4 nM and 18.4 nM.

Values taken from patent US12692264B2, “Pyrimidine or pyridine derivative, preparation method therefor, and application thereof in pharmacy” (ABBISKO THERAPEUTICS CO., LTD., priority 2021, dated 2026).
